Measured values from PubChem BioAssay AID1963421 (Molecular Pharmacology Branch, DTP, NCI, 2024).

Tested on: 519858-162-T-J1-PDC complex spheroid growth, % test/control
Assay: Anticancer human tumor 519858-162-T-J1-PDC patient-derived colon adenocarcinoma cell line growth inhibition [Asc]
Settings: for IC50: curve of first compound; for viability, T/C: stronger effect = lower value
Outline: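 Concentration series start at each agent's clinical Cmax, or at 10 microM when none is established, and drop in half-log steps; agents are applied alone or together to complex spheroids built with HUVEC and hMSC.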
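Further: seven day drug exposure begun three days after spheroid seeding.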
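Wherever viability, T/C is given: 100% = DMSO vehicle wells and lower values mean less viable spheroid.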

NC(=O)C(=Cn1cnc(-c2cc(C(F)(F)F)cc(C(F)(F)F)c2)n1)c1cncnc1 + CNC(C)C(=O)NC1CN(S(=O)(=O)c2cccc(S(=O)(=O)N3CCC4CCC(C(=O)NC(c5ccccc5)c5ccccc5)N4C(=O)C(NC(=O)C(C)NC)C3)c2)CCC2CCC(C(=O)NC(c3ccccc3)c3ccccc3)N2C1=O
IC50 (second compound 0.00316 µM): > 300 nM
IC50 (second compound 0.01 µM): > 300 nM
IC50 (second compound 0.0316 µM): > 300 nM
IC50 (second compound 0.1 µM): > 300 nM
IC50 (second compound 0.316 µM): > 300 nM
IC50 (second compound 1 µM): > 300 nM
viability, T/C (second compound 0.00316 µM, first compound 0.000949 µM): 139%
viability, T/C (second compound 0.00316 µM, first compound 0.003 µM): 116%
viability, T/C (second compound 0.00316 µM, first compound 0.00949 µM): 102%
viability, T/C (second compound 0.00316 µM, first compound 0.03 µM): 83.8%
viability, T/C (second compound 0.00316 µM, first compound 0.0949 µM): 71.7%
viability, T/C (second compound 0.00316 µM, first compound 0.3 µM): 71.2%
viability, T/C (second compound 0.01 µM, first compound 0.000949 µM): 91.2%
viability, T/C (second compound 0.01 µM, first compound 0.003 µM): 80%
viability, T/C (second compound 0.01 µM, first compound 0.00949 µM): 67.5%
viability, T/C (second compound 0.01 µM, first compound 0.03 µM): 70.7%
viability, T/C (second compound 0.01 µM, first compound 0.0949 µM): 67%
viability, T/C (second compound 0.01 µM, first compound 0.3 µM): 55.6%
viability, T/C (second compound 0.0316 µM, first compound 0.000949 µM): 87%
viability, T/C (second compound 0.0316 µM, first compound 0.003 µM): 85.7%
viability, T/C (second compound 0.0316 µM, first compound 0.00949 µM): 80.1%
viability, T/C (second compound 0.0316 µM, first compound 0.03 µM): 54.8%
viability, T/C (second compound 0.0316 µM, first compound 0.0949 µM): 65%
viability, T/C (second compound 0.0316 µM, first compound 0.3 µM): 63.5%
viability, T/C (second compound 0.1 µM, first compound 0.000949 µM): 99.2%
viability, T/C (second compound 0.1 µM, first compound 0.003 µM): 96.3%
viability, T/C (second compound 0.1 µM, first compound 0.00949 µM): 98.4%
viability, T/C (second compound 0.1 µM, first compound 0.03 µM): 67.8%
viability, T/C (second compound 0.1 µM, first compound 0.0949 µM): 50.1%
viability, T/C (second compound 0.1 µM, first compound 0.3 µM): 71.2%
viability, T/C (second compound 0.316 µM, first compound 0.000949 µM): 86.3%
viability, T/C (second compound 0.316 µM, first compound 0.003 µM): 105%
viability, T/C (second compound 0.316 µM, first compound 0.00949 µM): 67.1%
viability, T/C (second compound 0.316 µM, first compound 0.03 µM): 65.7%
viability, T/C (second compound 0.316 µM, first compound 0.0949 µM): 69.5%
viability, T/C (second compound 0.316 µM, first compound 0.3 µM): 67.6%
viability, T/C (second compound 1 µM, first compound 0.000949 µM): 88.4%
viability, T/C (second compound 1 µM, first compound 0.003 µM): 71.4%
viability, T/C (second compound 1 µM, first compound 0.00949 µM): 76.5%
viability, T/C (second compound 1 µM, first compound 0.03 µM): 51.4%
viability, T/C (second compound 1 µM, first compound 0.0949 µM): 72.3%
viability, T/C (second compound 1 µM, first compound 0.3 µM): 109%

NC1CCC(NC2CC2c2ccccc2)CC1 (centres undefined) + CNC(C)C(=O)NC1CN(S(=O)(=O)c2cccc(S(=O)(=O)N3CCC4CCC(C(=O)NC(c5ccccc5)c5ccccc5)N4C(=O)C(NC(=O)C(C)NC)C3)c2)CCC2CCC(C(=O)NC(c3ccccc3)c3ccccc3)N2C1=O
IC50 (second compound 0.00316 µM): > 100 nM
IC50 (second compound 0.01 µM): > 100 nM
IC50 (second compound 0.0316 µM): > 100 nM
IC50 (second compound 0.1 µM): > 100 nM
IC50 (second compound 0.316 µM): > 100 nM
IC50 (second compound 1 µM): > 100 nM
viability, T/C (second compound 0.00316 µM, first compound 0.000316 µM): 106%
viability, T/C (second compound 0.00316 µM, first compound 0.001 µM): 90.1%
viability, T/C (second compound 0.00316 µM, first compound 0.00316 µM): 117%
viability, T/C (second compound 0.00316 µM, first compound 0.01 µM): 112%
viability, T/C (second compound 0.00316 µM, first compound 0.0316 µM): 92.4%
viability, T/C (second compound 0.00316 µM, first compound 0.1 µM): 85.3%
viability, T/C (second compound 0.01 µM, first compound 0.000316 µM): 129%
viability, T/C (second compound 0.01 µM, first compound 0.001 µM): 83.7%
viability, T/C (second compound 0.01 µM, first compound 0.00316 µM): 112%
viability, T/C (second compound 0.01 µM, first compound 0.01 µM): 88.5%
viability, T/C (second compound 0.01 µM, first compound 0.0316 µM): 109%
viability, T/C (second compound 0.01 µM, first compound 0.1 µM): 106%
viability, T/C (second compound 0.0316 µM, first compound 0.000316 µM): 89%
viability, T/C (second compound 0.0316 µM, first compound 0.001 µM): 111%
viability, T/C (second compound 0.0316 µM, first compound 0.00316 µM): 91.9%
viability, T/C (second compound 0.0316 µM, first compound 0.01 µM): 97.4%
viability, T/C (second compound 0.0316 µM, first compound 0.0316 µM): 95.5%
viability, T/C (second compound 0.0316 µM, first compound 0.1 µM): 102%
viability, T/C (second compound 0.1 µM, first compound 0.000316 µM): 105%
viability, T/C (second compound 0.1 µM, first compound 0.001 µM): 112%
viability, T/C (second compound 0.1 µM, first compound 0.00316 µM): 121%
viability, T/C (second compound 0.1 µM, first compound 0.01 µM): 94.9%
viability, T/C (second compound 0.1 µM, first compound 0.0316 µM): 109%
viability, T/C (second compound 0.1 µM, first compound 0.1 µM): 90%
viability, T/C (second compound 0.316 µM, first compound 0.000316 µM): 77.2%
viability, T/C (second compound 0.316 µM, first compound 0.001 µM): 81.5%
viability, T/C (second compound 0.316 µM, first compound 0.00316 µM): 118%
viability, T/C (second compound 0.316 µM, first compound 0.01 µM): 81.4%
viability, T/C (second compound 0.316 µM, first compound 0.0316 µM): 92.1%
viability, T/C (second compound 0.316 µM, first compound 0.1 µM): 102%
viability, T/C (second compound 1 µM, first compound 0.000316 µM): 82.9%
viability, T/C (second compound 1 µM, first compound 0.001 µM): 101%
viability, T/C (second compound 1 µM, first compound 0.00316 µM): 115%
viability, T/C (second compound 1 µM, first compound 0.01 µM): 81.3%
viability, T/C (second compound 1 µM, first compound 0.0316 µM): 85.8%
viability, T/C (second compound 1 µM, first compound 0.1 µM): 80.3%
